# Laboratory results reported in patent US20080058421A1, “COMPOSITIONS FOR CLEANING AND DISINFECTING NASAL TRACT AND SINUS CAVITY” (priority 2006, published 2008).
# How the values were obtained:
# Type in all cases: cell-based
# [1] = tested on: Escherichia coli ATCC 11229; experiment: A.O.A.C. sanitizer and germicidal detergent test
# From the text: (§1) The bacterial cultures were purchased from the American Type Culture Collection (ATCC), (Bethesda, Md.). Escherichia coli and Staphylococcus aureus are used to represent both gram-negative and gram-positive bacterial classes. This test is used by the US EPA for to determine compliance for a product to be used as a sanitizing agent. A product that reduces population density of both types of bacteria in 30 seconds by 99.999% satisfies the requirement as a sanitizing agent.
# [2] = tested on: Staphylococcus aureus ATCC 6538; experiment: A.O.A.C. sanitizer and germicidal detergent test
# From the text: as §1
# [3] = tested on: A. h. 7965 (Aeromonas hydrophila); experiment: modified A.O.A.C. germicidal and detergent sanitizer test
# Experimental: (§2) The efficacy of the sanitizers in Examples 1, 2 and 3 was further evaluated with […] as controls against Salmonella typhimurium, Listeria monocytogenes, Aeromonas hydrophila, and Pseudomonas aeruginosa essentially by the modified detergent and germicidal sanitizer test of the A.O.A.C. The sanitizers were tested against both natural isolates and the antibiotic resistant strains of Listeria monocytogenes and Salmonella typhimurium. Each of the antibiotic resistant strains was used separately as well as in a composite strain prepared by mixing equal numbers of five different antibiotic resistant strains of Listeria monocytogenes or those of Salmonella typhimurium, respectively.
# [4] = tested on: L. m. 7644 (Listeria monocytogenes); experiment: as above
# Experimental: as §2
# [5] = tested on: S. t. 7823 (Salmonella typhimurium); experiment: as above
# Experimental: as §2
# [6] = tested on: P. a. 10145 (Pseudomonas aeruginosa); experiment: as above
# Experimental: as §2
# [7] = sanitizer criterion is 99.999% reduction in 30 seconds
structure (smiles),measurement,setting,value
OCl [Hypochlorite],meets criterion of a sanitizer (99.999% reduction in 30 seconds),[1]; Fifty ppm hypochlorite,meets the criterion of a sanitizer
same,% Kill E. coli,[1]; [7],>99.999%
same,meets criterion of a sanitizer (99.999% reduction in 30 seconds),[2]; Fifty ppm hypochlorite,meets the criterion of a sanitizer
same,% Kill Staph. aureus,[2]; [7],>99.999%
same,% Kill,[3]; 30 seconds contact,>99.999%
same,% Kill,[3]; 60 seconds contact,>99.999%
same,% Kill,[4]; 30 seconds contact,>99.999%
same,% Kill,[4]; 60 seconds contact,>99.999%
same,% Kill,[5]; 30 seconds contact,<99.999%
same,"Number of surviving bacteria/ml after contact, cfu/ml","[5]; 30 seconds contact, HOCL = 50 ppm, duplicate counts","T@, T@"
same,% Kill,[5]; 60 seconds contact,>99.999%
same,% Kill,[6]; 30 seconds contact,>99.999%
same,% Kill,[6]; 60 seconds contact,>99.999%
